Like-named read-outs stand apart in the source and are kept apart here. Square brackets hold non-standard residues; d marks the D form. Peptide text beside a SMILES is read from it. * marks the point of attachment. dPhe(4-NHCONH2) = NC(=O)Nc1ccc(C[C@@H](N)C(=O)O)cc1; Dihydroorotyl(S) = O=C1C[C@@H](C(=O)*)NC(=O)N1; dPhe(4-Cl) = N[C@H](Cc1ccc(Cl)cc1)C(=O)O; Phe(4-NH2) = Nc1ccc(C[C@H](N)C(=O)O)cc1; d2Nal = N[C@H](Cc1ccc2ccccc2c1)C(=O)O; Lys(iPr) = CC(C)NCCCC[C@H](N)C(=O)O; d3Pal = N[C@H](Cc1cccnc1)C(=O)O
Key:
[1] = clinical; conditions: male, human, in vivo, sc, 240 mg
[2] = human, in vivo, sc
[3] = in vitro; conditions: plasma
[4] = tested on: human CYP450 (cytochrome P450) system
[5] = human, in vivo
[6] = tested on: luteinizing hormone (LH); test: Serum LH levels over time (clinical study CS21); assay type: in vivo, human; conditions: day 1; degarelix, ITT analysis set
Protocol: The study also investigated whether degarelix is safe and effective with respect to achieving and maintaining testosterone suppression to castrate levels, evaluated as the proportion of patients with testosterone suppression ≦0.5 ng/mL during 12 months of treatment. […] The study also evaluated the pharmacokinetics of the degarelix dosing regimens investigated. Finally, the study examined the effects of using the degarelix treatment on patients suffering from different stages of cancer.
Patients in two treatment groups received a degarelix starting dose of 240 mg at a concentration of 40 mg/mL (240@40) on day 0 administered as two equivalent subcutaneous (s.c.) injections of 120 mg each. Thereafter, patients received 12 additional single s.c. degarelix doses of either 80 mg at a concentration of 20 mg/mL (80@20: degarelix 240/80 mg group) or 160 mg at a concentration of 40 mg/mL (160@40: degarelix 240/160 mg group) administered s.c. every 28 days.
The secondary efficacy endpoints were: the proportion of patients with testosterone surge during the first 2 weeks of treatment; the proportion of patients with testosterone level ≦0.5 ng/mL at day 3; the percentage change in PSA from baseline to day 28; the probability of testosterone ≦0.5 ng/mL from day 56 through day 364; the levels of serum testosterone, LH, FSH and PSA over time through the study; the time to PSA failure, defined as two consecutive increases of 50%, and at least 5 ng/mL as compared to nadir; degarelix concentration over the first month and trough levels at day 308 and 336; the frequency and size of testosterone increases at day 255 and/or 259 compared to the testosterone level at day 252; the quality of life on days 0, 28, 84, 168 and end of study visit; the frequency and intensity of hot flushes experienced (scored daily from study start until end of study visit). In addition, two further secondary endpoints were added: the probability of sufficient testosterone response from day 28 through day 364 (a patient was considered to have insufficient testosterone response if they had one testosterone value >1.0 ng/mL or two consecutive testosterone values >0.5 ng/mL at day 28 onwards); and the percentage change in PSA from baseline to day 14.

[7] = clinical; design: species or system human; conditions: in vivo
Excerpt: Plasma protein binding is estimated to be approximately 90%.

[8] = tested on: testosterone; assay type: in vivo, human; conditions: for overall proportion of patients with testosterone ≦0.5 ng/mL from day 28 to day 364: observed cases analysis
Protocol: The study also evaluated the pharmacokinetics of the degarelix dosing regimens investigated. Finally, the study examined the effects of using the degarelix treatment on patients suffering from different stages of cancer. […] The primary efficacy endpoint was the probability of testosterone levels remaining ≦0.5 ng/mL from day 28 through day 364. […] The primary efficacy endpoint was analyzed for both the ITT and PP analysis sets, with the ITT analysis set considered primary. The primary efficacy endpoint was analyzed using the Kaplan Meier method. For each of the three treatment groups, testosterone response rates with 95% confidence interval (CI) were calculated by log-log transformation of survivor function. […] All secondary efficacy endpoints were analyzed for both the ITT and PP analysis sets, unless otherwise stated. […] The percentage change in PSA from baseline to day 28 endpoint was analyzed by a Wilcoxon test.

[9] = tested on: serum alkaline phosphatase (S-ALP); test: S-ALP analysis in prostate cancer patients (clinical study CS21); assay type: in vivo, human; conditions: Degarelix 240/80 mg
Protocol: Patients with histologically confirmed adenocarcinoma of the prostate (all stages), for whom androgen deprivation therapy was indicated were recruited. Baseline characteristics were well balanced between groups. Approximately half of patients had locally advanced (29.2%) or metastatic (20.5%) disease at baseline. […] Patients receiving leuprolide could also receive bicalutamide for clinical flare protection. The S-ALP levels were measured in each patient at various time points, by taking a blood sample and analyzing for S-ALP. S-ALP levels were measured using a standardized colorimetric assay based on the p-nitrophenyl phosphate AMP buffer method. The normal range for S-ALP is 44-147 IU/L. The S-ALP values in non-metastatic patients serve as controls. An ANOVA analysis with treatment and day as factors and baseline value as covariate was used to determine between treatment differences at Day 364. A repeated measures analysis (incorporating all time points from Day 112) with treatment and day as factors and baseline value as covariate was used to assess between treatment differences from Day 112 to Day 364.

## CC(=O)N[C@H](Cc1ccc2ccccc2c1)C(=O)N[C@H](Cc1ccc(Cl)cc1)C(=O)N[C@H](Cc1cccnc1)C(=O)N[C@@H](CO)C(=O)N[C@@H](Cc1ccc(NC(=O)[C@@H]2CC(=O)NC(=O)N2)cc1)C(=O)N[C@H](Cc1ccc(NC(N)=O)cc1)C(=O)N[C@@H](CC(C)C)C(=O)N[C@@H](CCCCNC(C)C)C(=O)N1CCC[C@H]1C(=O)N[C@H](C)C(N)=O [degarelix, D-Alaninamide, N-acetyl-3-(2-naphthalenyl)-D-alanyl-4-chloro-D-phenylalanyl-3-(3-pyridinyl)-D-alanyl-L-seryl-4-[[[(4S)-hexahydro-2,6-dioxo-4-pyrimidinyl]carbonyl]amino]-L phenylalanyl-4-[(aminocarbonyl)amino]-D-phenylalanyl-L leucyl-N6-(1-methylethyl)-L-lysyl-L-prolyl] (Ac-[d2Nal][dPhe(4-Cl)][d3Pal]S[Phe(4-NH2)](Dihydroorotyl(S))[dPhe(4-NHCONH2)]L[Lys(iPr)]P[dA]-NH2)
[1]
  Cmax: 53.4 ng/mL
  Tmax: 1.4 days
[1]; T½
  half-life: 43 days
[1]; median terminal half-life
  half-life: ~43 days
[2]
  significant metabolites in plasma samples: No significant metabolites were detected
[2]; 240 mg
  AUC: 1240 ng·days/mL
[3]
  fraction unbound: ~0.1
[4]
  substrate for the human CYP450 system: not a substrate
[5]
  tolerability: generally well tolerated
[6]
  decrease of median LH from baseline: approximately 88%
  median LH level: < 0.7 IU/L
[7]
  fraction excreted via the hepato-biliary system: approximately 80%
[7]; male, human
  Vd: ~1 L/kg
  clearance: 0.583 to 0.833 mL/min/kg
  dose excreted: ~20%
[8]; 240 mg then monthly 80 mg, after one year
  median testosterone level: 0.087 ng/mL
[8]; 240 mg then monthly 80 mg, at least one year
  patients with sustained testosterone suppression: 97%
[8]; degarelix 240/80 mg group
  Kaplan-Meier estimate of the probability of testosterone ≦0.5 ng/mL from day 28 to day 364: 97.2%
  overall proportion of patients with testosterone ≦0.5 ng/mL from day 28 to day 364: 97.0%
[8]; degarelix 240/160 mg group
  Kaplan-Meier estimate of the probability of testosterone ≦0.5 ng/mL from day 28 to day 364: 98.3%
  overall proportion of patients with testosterone ≦0.5 ng/mL from day 28 to day 364: 98.2%
[8]; human, in vivo
  proportion of patients with testosterone surge (increase 15% from baseline): 0.2%
[8]; patients receiving degarelix
  patients exhibiting testosterone suppression on day 3: 96%
[9]; Localized, Day 112
  S-ALP mean change from baseline: +5 IU/L
[9]; Localized, Day 224
  S-ALP mean change from baseline: +8 IU/L
[9]; Localized, Day 364
  S-ALP mean change from baseline: +10 IU/L
[9]; Locally advanced, Day 112
  S-ALP mean change from baseline: +6 IU/L
[9]; Locally advanced, Day 224
  S-ALP mean change from baseline: +7 IU/L
[9]; Locally advanced, Day 364
  S-ALP mean change from baseline: +10 IU/L
[9]; Metastatic (Hb < 130 g/L), Day 112
  S-ALP mean change from baseline: −160 IU/L
[9]; Metastatic (Hb < 130 g/L), Day 224
  S-ALP mean change from baseline: −200 IU/L
[9]; Metastatic (Hb < 130 g/L), Day 364
  S-ALP mean change from baseline: −230 IU/L
[9]; Metastatic, Day 112
  S-ALP mean change from baseline: −90 IU/L
[9]; Metastatic, Day 224
  S-ALP mean change from baseline: −100 IU/L
[9]; Metastatic, Day 364
  S-ALP mean change from baseline: −90 IU/L
[9]; baseline PSA 10-20 ng/mL, Day 112
  S-ALP mean change from baseline: +5 IU/L
[9]; baseline PSA 10-20 ng/mL, Day 224
  S-ALP mean change from baseline: +8 IU/L
[9]; baseline PSA 10-20 ng/mL, Day 364
  S-ALP mean change from baseline: +13 IU/L
[9]; baseline PSA 20-50 ng/mL, Day 112
  S-ALP mean change from baseline: +5 IU/L
[9]; baseline PSA 20-50 ng/mL, Day 224
  S-ALP mean change from baseline: +7.5 IU/L
[9]; baseline PSA 20-50 ng/mL, Day 364
  S-ALP mean change from baseline: +4.5 IU/L
[9]; baseline PSA < 10 ng/mL, Day 112
  S-ALP mean change from baseline: +4.5 IU/L
[9]; baseline PSA < 10 ng/mL, Day 224
  S-ALP mean change from baseline: +5.5 IU/L
[9]; baseline PSA < 10 ng/mL, Day 364
  S-ALP mean change from baseline: +7 IU/L
[9]; baseline PSA > 50 ng/mL, Day 112
  S-ALP mean change from baseline: −60 IU/L
[9]; baseline PSA > 50 ng/mL, Day 224
  S-ALP mean change from baseline: −70 IU/L
[9]; baseline PSA > 50 ng/mL, Day 364
  S-ALP mean change from baseline: −60 IU/L

From US9877999B2, “Methods for treating metastatic stage prostate cancer” (Ferring International SA, priority 2008, dated 2018)
